How the values were obtained:
Assay type in all cases: in vivo
[1] = Weight gain and water consumption of mice given the compounds in drinking water; details: old mice (15 months), 500 mg/kg p.o. in drinking water; compared with non-treated mice of 15 months (FIG. 1A)
Protocol: The administering of β-NMN at 500 mg/kg, of α-NMN at 500 mg/kg and of the vehicle (water) was obtained via oral route (p.o) in the drinking water to young and old mice. The solutions were prepared by dissolving the powder of β-NMN or α-NMN in the vehicle (water). The solution was used at ambient temperature for no more than 2 days and was freshly prepared for each new administration. The mice were weighed each week to adapt the dose of the compound to be administered. Throughout the entire phase, a standard food diet and tap water were provided ad libitum. The study comprised 4 groups each having 6 mice: • Group 1: young mice (aged 10 weeks)+drinking water (vehicle) • Groupe 2: old mice (aged 15 months)+drinking water (vehicle) • Group 3: old mice (aged 15 months)+compound I-B (alpha-NMN) in the drinking water • Group 4: old mice (aged 15 months)+compound I-A (beta-NMN) in the drinking water The water consumption of the mice was assessed per cage every other day. The mice were weighed every week. The mice in Group 3 were sacrificed after 4 weeks for organ collection and characterisation of T cell function. The mice in Group 4 were sacrificed after 6 weeks for organ collection and characterisation of T cell function. On the day of sacrifice, the mice were anaesthetised with Vetoflurane (isoflurane) and blood samples were taken from the retroorbital sinus. […]

[2] = system: thymus; test: Weight and size of the thymus (thymic involution) in old mice; details: old mice (15 months), 500 mg/kg p.o. in drinking water; α-NMN 4 weeks, β-NMN 6 weeks; vs non-treated old mice (FIG. 2)
Protocol: The administering of β-NMN at 500 mg/kg, of α-NMN at 500 mg/kg and of the vehicle (water) was obtained via oral route (p.o) in the drinking water to young and old mice. The solutions were prepared by dissolving the powder of β-NMN or α-NMN in the vehicle (water). The study comprised 4 groups each having 6 mice: • Group 1: young mice (aged 10 weeks)+drinking water (vehicle) • Groupe 2: old mice (aged 15 months)+drinking water (vehicle) • Group 3: old mice (aged 15 months)+compound I-B (alpha-NMN) in the drinking water • Group 4: old mice (aged 15 months)+compound I-A (beta-NMN) in the drinking water The water consumption of the mice was assessed per cage every other day. The mice were weighed every week. The mice in Group 3 were sacrificed after 4 weeks for organ collection and characterisation of T cell function. The mice in Group 4 were sacrificed after 6 weeks for organ collection and characterisation of T cell function. On the day of sacrifice, the mice were anaesthetised with Vetoflurane (isoflurane) and blood samples were taken from the retroorbital sinus. The blood was incubated for 30 minutes at ambient temperature and then centrifuged at 1300 g for 10 minutes. […] The thymus was weighed and measured to evaluate involution thereof. […] Measured parameters: The results of flow cytometry are expressed in number or as a proportion of cells per organ. […]

[3] = system: T cells present in the spleen; test: Flow cytometry of CD4+ and CD8+ T cells in the spleen of old mice; details: 500 mg/kg p.o.; for number of CD4+ effector T cells: α-NMN 4 weeks, β-NMN 6 weeks, compared with Group 3 (so in the source)
Protocol: The administering of β-NMN at 500 mg/kg, of α-NMN at 500 mg/kg and of the vehicle (water) was obtained via oral route (p.o) in the drinking water to young and old mice. The solutions were prepared by dissolving the powder of β-NMN or α-NMN in the vehicle (water). The study comprised 4 groups each having 6 mice: • Group 1: young mice (aged 10 weeks)+drinking water (vehicle) • Groupe 2: old mice (aged 15 months)+drinking water (vehicle) • Group 3: old mice (aged 15 months)+compound I-B (alpha-NMN) in the drinking water • Group 4: old mice (aged 15 months)+compound I-A (beta-NMN) in the drinking water The water consumption of the mice was assessed per cage every other day. The mice were weighed every week. The mice in Group 3 were sacrificed after 4 weeks for organ collection and characterisation of T cell function. The mice in Group 4 were sacrificed after 6 weeks for organ collection and characterisation of T cell function. On the day of sacrifice, the mice were anaesthetised with Vetoflurane (isoflurane) and blood samples were taken from the retroorbital sinus. The blood was incubated for 30 minutes at ambient temperature and then centrifuged at 1300 g for 10 minutes. After sacrificing of the mice, the spleen, thymus, and bone marrow of each animal were removed. The thymus was weighed and measured to evaluate involution thereof. For illustration purposes, photos of the thymus were taken on 5 animals per group. The thymus was divided into two parts: one part was treated with formol for histological examination. The second part was treated for characterisation of the immune cells. For characterisation of the cells, the thymus and spleen were crushed through a sieve of […] over a 50 mL tube with a syringe plunger. The bone marrow was rinsed with RPMI culture medium using a needle and syringe. The cell suspension was then centrifuged at 400 g for 5 minutes at 4° C. Lysis of the red blood cells was also performed before the cell count and use thereof for cytometry. The isolated cells of the spleen, thymus and bone marrow were marked with antibodies in accordance with the following tables to identify the proportion of effector and memory naive T and B cells. The following T cells of the spleen were also examined for characterisation as a function of the combination of proteins on the surface thereof: [table] Measured parameters: The results of flow cytometry are expressed in number or as a proportion of cells per organ. The weight of the thymus is expressed in grams.

SMILES | weight gain of the treated mice [1] | weight and size of the thymus [2] | number of CD4+ memory T cells in the spleen ([3]; 6 weeks, compared with the other groups (FIG. 7B)) | total number of CD4+ T cells in the spleen ([3]; 6 weeks, compared with the other groups of mice (FIG. 7A)) | number of CD4+ effector T cells [3] | number of naive CD8+ T cells in the spleen ([3]; 4 weeks (FIG. 8A)) | levels of effector CD8+ T cells in the spleen ([3]; 4 weeks (FIG. 8B)) | levels of memory CD8+ T cells in the spleen ([3]; 4 weeks (FIG. 8C as printed)) | levels of effector memory CD8+ T cells in the spleen ([3]; 4 weeks (FIG. 8D as printed))
NC(=O)c1ccc[n+]([C@@H]2O[C@H](COP(=O)([O-])O)[C@@H](O)[C@H]2O)c1 (stereo in doubt) [I-A, nicotinamide mononucleotide] | did not significantly increase the weight | significant increase in the size of the thymus | increase in the memory T cells that is significant | significantly increased | increase in the number of CD4+ effector T cells |  |  |  | 
NC(=O)c1ccc[n+]([C@H]2O[C@H](COP(=O)([O-])O)[C@@H](O)[C@H]2O)c1 (stereo in doubt) [I-B, alpha nicotinamide mononucleotide] | did not significantly increase the weight | did not allow an increase in the volume or size of the thymus |  |  | increase in the number of CD4+ effector T cells | does not modify the number of naive CD8+ T cells | restoring of the levels of effector CD8+ T cells | restoring of the levels | restoring of the levels

— patent publication US20230136569A1, “USE OF NMN TO REDUCE IMMUNODEPRESSION AND IMMUNOSENESCENCE” (NUVAMID SA, priority 2020, published 2023)
